From ChEMBL document CHEMBL1909046, “DrugMatrix in vitro pharmacology data”

Key:
Estrogen receptor = target: T1, Estrogen receptor (Homo sapiens, UniProt P03372); conditions: sf9
T1 sequence (P03372 whole entry): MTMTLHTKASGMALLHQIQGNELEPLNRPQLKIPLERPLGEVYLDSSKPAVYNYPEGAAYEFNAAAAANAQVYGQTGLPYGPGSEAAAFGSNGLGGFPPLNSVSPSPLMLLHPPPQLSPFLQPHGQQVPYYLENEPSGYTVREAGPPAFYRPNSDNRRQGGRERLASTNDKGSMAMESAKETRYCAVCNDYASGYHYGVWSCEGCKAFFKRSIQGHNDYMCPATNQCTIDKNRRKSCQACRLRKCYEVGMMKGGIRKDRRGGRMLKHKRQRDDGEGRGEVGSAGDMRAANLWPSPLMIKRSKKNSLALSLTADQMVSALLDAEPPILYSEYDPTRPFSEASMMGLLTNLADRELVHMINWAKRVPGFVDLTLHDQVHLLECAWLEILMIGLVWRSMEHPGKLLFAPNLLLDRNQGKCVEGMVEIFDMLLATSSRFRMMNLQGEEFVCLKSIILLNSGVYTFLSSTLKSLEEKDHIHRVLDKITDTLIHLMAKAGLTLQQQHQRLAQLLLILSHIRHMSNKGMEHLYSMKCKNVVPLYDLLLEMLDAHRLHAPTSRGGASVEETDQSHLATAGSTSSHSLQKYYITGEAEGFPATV

Cytochrome P450 2C19 = Cytochrome P450 2C19 (Homo sapiens, UniProt P33261); conditions: bti-tn-5b1-4
[1] = target: T2, Nitric oxide synthase, inducible (Mus musculus, UniProt P29477); parameters: species or system Escherichia coli;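 further: inhibition of iNOS enzyme activity measured with L-arginine as substrate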
T2 sequence (P29477 whole entry): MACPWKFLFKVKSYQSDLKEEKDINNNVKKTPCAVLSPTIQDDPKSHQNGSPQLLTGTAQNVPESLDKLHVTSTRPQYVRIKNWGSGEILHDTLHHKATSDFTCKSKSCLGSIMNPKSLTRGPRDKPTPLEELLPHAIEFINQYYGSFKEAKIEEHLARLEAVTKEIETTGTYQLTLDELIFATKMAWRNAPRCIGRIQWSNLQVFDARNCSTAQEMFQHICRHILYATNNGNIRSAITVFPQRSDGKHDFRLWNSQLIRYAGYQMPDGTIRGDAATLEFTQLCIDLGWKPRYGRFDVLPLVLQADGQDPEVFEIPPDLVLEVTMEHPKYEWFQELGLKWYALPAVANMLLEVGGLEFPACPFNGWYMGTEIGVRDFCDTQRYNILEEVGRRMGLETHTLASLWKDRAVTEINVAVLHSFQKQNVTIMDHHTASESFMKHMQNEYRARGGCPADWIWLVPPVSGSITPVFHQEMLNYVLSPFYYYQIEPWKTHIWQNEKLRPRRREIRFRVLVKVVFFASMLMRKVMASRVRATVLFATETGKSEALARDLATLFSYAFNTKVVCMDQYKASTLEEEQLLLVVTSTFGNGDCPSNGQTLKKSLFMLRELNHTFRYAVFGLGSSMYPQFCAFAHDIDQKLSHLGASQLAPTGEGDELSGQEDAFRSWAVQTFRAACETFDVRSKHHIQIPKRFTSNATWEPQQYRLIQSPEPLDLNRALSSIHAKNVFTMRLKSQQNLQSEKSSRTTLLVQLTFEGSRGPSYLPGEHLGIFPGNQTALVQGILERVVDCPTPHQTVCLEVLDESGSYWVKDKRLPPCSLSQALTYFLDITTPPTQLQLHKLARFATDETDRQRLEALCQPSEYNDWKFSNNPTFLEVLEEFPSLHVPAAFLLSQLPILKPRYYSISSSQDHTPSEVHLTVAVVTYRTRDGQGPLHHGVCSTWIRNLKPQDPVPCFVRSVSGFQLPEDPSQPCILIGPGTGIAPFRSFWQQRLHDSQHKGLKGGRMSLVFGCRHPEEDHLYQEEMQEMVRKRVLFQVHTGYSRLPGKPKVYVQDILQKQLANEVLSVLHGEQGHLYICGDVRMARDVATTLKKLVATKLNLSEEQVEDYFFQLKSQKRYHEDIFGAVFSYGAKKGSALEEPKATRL

Cytochrome P450 2C9 = Cytochrome P450 2C9 (Homo sapiens, UniProt P11712); conditions: bti-tn-5b1-4
Cytochrome P450 2D6 = Cytochrome P450 2D6 (Homo sapiens, UniProt P10635); conditions: bti-tn-5b1-4
[2] = target: T3, Type-2 angiotensin II receptor (Homo sapiens, UniProt P50052); assay type: cell-based; conditions: cho-k1
T3 sequence (P50052 whole entry): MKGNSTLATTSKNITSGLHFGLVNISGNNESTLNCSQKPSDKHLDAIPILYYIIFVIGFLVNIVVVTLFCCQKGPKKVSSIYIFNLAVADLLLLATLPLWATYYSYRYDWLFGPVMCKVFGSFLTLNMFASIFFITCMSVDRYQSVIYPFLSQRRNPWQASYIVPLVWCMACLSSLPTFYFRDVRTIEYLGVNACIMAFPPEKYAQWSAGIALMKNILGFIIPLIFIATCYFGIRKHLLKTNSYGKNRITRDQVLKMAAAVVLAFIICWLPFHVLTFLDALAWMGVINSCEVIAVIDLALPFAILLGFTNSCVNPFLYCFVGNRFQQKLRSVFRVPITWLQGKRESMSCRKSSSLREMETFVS

Cytochrome P450 1A2 = target: T4, Cytochrome P450 1A2 (Homo sapiens, UniProt P05177); conditions: bti-tn-5b1-4
T4 sequence (P05177 whole entry): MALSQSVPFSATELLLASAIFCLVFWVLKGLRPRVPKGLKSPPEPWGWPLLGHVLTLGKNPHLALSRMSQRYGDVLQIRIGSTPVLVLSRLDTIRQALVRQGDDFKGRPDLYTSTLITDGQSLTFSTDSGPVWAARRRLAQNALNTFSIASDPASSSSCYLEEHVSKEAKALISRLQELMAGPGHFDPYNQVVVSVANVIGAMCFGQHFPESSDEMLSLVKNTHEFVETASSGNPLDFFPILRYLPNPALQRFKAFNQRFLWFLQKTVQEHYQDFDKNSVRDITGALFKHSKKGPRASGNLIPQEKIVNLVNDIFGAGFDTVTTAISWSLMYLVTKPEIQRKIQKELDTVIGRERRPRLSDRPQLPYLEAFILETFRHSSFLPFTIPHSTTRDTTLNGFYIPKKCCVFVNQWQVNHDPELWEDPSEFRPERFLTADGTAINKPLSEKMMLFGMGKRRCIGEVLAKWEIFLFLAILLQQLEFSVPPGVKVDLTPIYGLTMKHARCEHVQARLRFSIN
Further: in other assays of this panel Not Active means under 50% inhibition at 10 µM.

Cytochrome P450 2C19, sequence (P33261 whole entry): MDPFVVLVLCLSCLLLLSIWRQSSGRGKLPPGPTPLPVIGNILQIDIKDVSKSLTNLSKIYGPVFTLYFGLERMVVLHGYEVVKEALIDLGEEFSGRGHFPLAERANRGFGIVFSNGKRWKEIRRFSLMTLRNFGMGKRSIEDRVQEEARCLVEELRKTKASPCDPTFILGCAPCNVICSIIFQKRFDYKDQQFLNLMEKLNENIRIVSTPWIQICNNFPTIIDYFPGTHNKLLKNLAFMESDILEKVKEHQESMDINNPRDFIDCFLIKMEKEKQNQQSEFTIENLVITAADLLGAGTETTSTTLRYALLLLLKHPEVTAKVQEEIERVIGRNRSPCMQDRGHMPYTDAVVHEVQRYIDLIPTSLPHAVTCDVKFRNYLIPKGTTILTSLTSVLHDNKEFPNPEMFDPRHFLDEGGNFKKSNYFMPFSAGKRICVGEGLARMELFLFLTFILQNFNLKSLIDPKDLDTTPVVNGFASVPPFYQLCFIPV
Cytochrome P450 2D6, sequence (P10635 whole entry): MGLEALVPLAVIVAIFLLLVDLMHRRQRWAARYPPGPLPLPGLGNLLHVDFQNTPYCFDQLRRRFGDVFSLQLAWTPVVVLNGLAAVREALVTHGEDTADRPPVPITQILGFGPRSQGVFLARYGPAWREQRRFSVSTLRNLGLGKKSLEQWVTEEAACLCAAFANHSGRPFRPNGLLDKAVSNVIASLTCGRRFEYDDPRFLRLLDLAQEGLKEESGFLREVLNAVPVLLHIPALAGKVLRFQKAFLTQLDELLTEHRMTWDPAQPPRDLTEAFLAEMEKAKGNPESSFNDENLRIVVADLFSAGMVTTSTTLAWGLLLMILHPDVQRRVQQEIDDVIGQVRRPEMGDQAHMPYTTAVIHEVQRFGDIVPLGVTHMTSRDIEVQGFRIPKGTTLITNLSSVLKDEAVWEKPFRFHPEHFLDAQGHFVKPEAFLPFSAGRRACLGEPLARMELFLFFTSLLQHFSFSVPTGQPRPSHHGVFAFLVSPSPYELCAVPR
Cytochrome P450 2C9, sequence (P11712 whole entry): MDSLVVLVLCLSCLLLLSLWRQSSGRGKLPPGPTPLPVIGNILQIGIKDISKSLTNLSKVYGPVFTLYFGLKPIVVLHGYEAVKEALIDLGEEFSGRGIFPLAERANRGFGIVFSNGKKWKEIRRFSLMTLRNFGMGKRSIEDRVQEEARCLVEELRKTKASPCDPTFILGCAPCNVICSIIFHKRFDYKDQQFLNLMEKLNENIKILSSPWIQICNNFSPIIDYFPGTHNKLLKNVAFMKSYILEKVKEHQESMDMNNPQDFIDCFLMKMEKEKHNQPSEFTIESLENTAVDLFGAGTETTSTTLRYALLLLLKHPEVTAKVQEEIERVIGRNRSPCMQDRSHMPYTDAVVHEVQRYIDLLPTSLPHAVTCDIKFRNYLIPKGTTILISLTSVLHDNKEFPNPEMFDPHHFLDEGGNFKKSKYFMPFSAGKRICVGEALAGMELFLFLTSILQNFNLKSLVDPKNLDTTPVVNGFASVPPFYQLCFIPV

CC(C)(O)c1ccccc1CC[C@@H](SCC1(CC(=O)O)CC1)c1cccc(/C=C/c2ccc3ccc(Cl)cc3n2)c1 [MONTELUKAST]
Not Active: IC50 (Estrogen receptor) | IC50 (Cytochrome P450 2C19) | Ki (Cytochrome P450 2C19) | IC50 [1] | IC50 (Cytochrome P450 2C9) | Ki (Cytochrome P450 2C9) | IC50 (Cytochrome P450 2D6) | Ki (Cytochrome P450 2D6) | IC50 [2] | IC50 (Cytochrome P450 1A2) | Ki (Cytochrome P450 1A2)

C=CC[C@@H]1/C=C(\C)C[C@H](C)C[C@H](OC)[C@H]2O[C@@](O)(C(=O)C(=O)N3CCCC[C@H]3C(=O)O[C@H](/C(C)=C/[C@@H]3CC[C@@H](O)[C@H](OC)C3)[C@H](C)[C@@H](O)CC1=O)[C@H](C)C[C@@H]2OC [TACROLIMUS ANHYDROUS]
Not Active: IC50 (Estrogen receptor) | IC50 (Cytochrome P450 2C19) | Ki (Cytochrome P450 2C19) | IC50 [1] | IC50 (Cytochrome P450 2C9) | Ki (Cytochrome P450 2C9) | IC50 (Cytochrome P450 2D6) | Ki (Cytochrome P450 2D6) | IC50 [2] | IC50 (Cytochrome P450 1A2) | Ki (Cytochrome P450 1A2)

CC(=O)[C@H]1CC[C@H]2[C@@H]3CCC4=CC(=O)CC[C@]4(C)[C@H]3CC[C@]12C [PROGESTERONE]
Not Active: IC50 (Estrogen receptor) | IC50 (Cytochrome P450 2C19) | Ki (Cytochrome P450 2C19) | IC50 [1] | IC50 (Cytochrome P450 2C9) | Ki (Cytochrome P450 2C9) | IC50 (Cytochrome P450 2D6) | Ki (Cytochrome P450 2D6) | IC50 [2] | IC50 (Cytochrome P450 1A2) | Ki (Cytochrome P450 1A2)

CO[C@@H]1[C@@H](O[C@@H]2O[C@H](C)[C@@H](O[C@H]3C[C@@](C)(O)[C@@H](OC(=O)CC(C)C)[C@H](C)O3)[C@H](N(C)C)[C@H]2O)[C@@H](CC=O)C[C@@H](C)[C@@H](O)/C=C/C=C/C[C@@H](C)OC(=O)C[C@H]1O [KITASAMYCIN]
Not Active: IC50 (Estrogen receptor) | IC50 (Cytochrome P450 2C19) | Ki (Cytochrome P450 2C19) | IC50 [1] | IC50 (Cytochrome P450 2C9) | Ki (Cytochrome P450 2C9) | IC50 (Cytochrome P450 2D6) | Ki (Cytochrome P450 2D6) | IC50 [2] | IC50 (Cytochrome P450 1A2) | Ki (Cytochrome P450 1A2)

Oc1c(I)cc(I)c2cccnc12 [IODOQUINOL]
Not Active: IC50 (Estrogen receptor) | IC50 (Cytochrome P450 2C19) | Ki (Cytochrome P450 2C19) | IC50 [1] | IC50 (Cytochrome P450 2C9) | Ki (Cytochrome P450 2C9) | IC50 (Cytochrome P450 2D6) | Ki (Cytochrome P450 2D6) | IC50 [2] | IC50 (Cytochrome P450 1A2) | Ki (Cytochrome P450 1A2)

NC(CO)(CO)CO [TROMETHAMINE]
Not Active: IC50 (Estrogen receptor) | IC50 (Cytochrome P450 2C19) | Ki (Cytochrome P450 2C19) | IC50 [1] | IC50 (Cytochrome P450 2C9) | Ki (Cytochrome P450 2C9) | IC50 (Cytochrome P450 2D6) | Ki (Cytochrome P450 2D6) | IC50 [2] | IC50 (Cytochrome P450 1A2) | Ki (Cytochrome P450 1A2)

O=[N+]([O-])c1cc([As](=O)(O)O)ccc1O [ROXARSONE]
Not Active: IC50 (Estrogen receptor) | Ki (Estrogen receptor) | IC50 (Cytochrome P450 2C19) | Ki (Cytochrome P450 2C19) | IC50 [1] | Ki [1] | IC50 (Cytochrome P450 2C9) | Ki (Cytochrome P450 2C9) | IC50 (Cytochrome P450 2D6) | Ki (Cytochrome P450 2D6) | IC50 [2] | Ki [2] | IC50 (Cytochrome P450 1A2) | Ki (Cytochrome P450 1A2)

Cc1ncc([N+](=O)[O-])n1CC(C)O (configuration not stated) [SECNIDAZOLE]
Not Active: IC50 (Estrogen receptor) | IC50 (Cytochrome P450 2C19) | Ki (Cytochrome P450 2C19) | IC50 [1] | IC50 (Cytochrome P450 2C9) | Ki (Cytochrome P450 2C9) | IC50 (Cytochrome P450 2D6) | Ki (Cytochrome P450 2D6) | IC50 [2] | IC50 (Cytochrome P450 1A2) | Ki (Cytochrome P450 1A2)

CC1=C(/C=C/C(C)=C/C=C/C(C)=C\C(=O)O)C(C)(C)CCC1 [ISOTRETINOIN]
Not Active: IC50 (Estrogen receptor) | IC50 (Cytochrome P450 2C19) | Ki (Cytochrome P450 2C19) | IC50 [1] | IC50 (Cytochrome P450 2C9) | Ki (Cytochrome P450 2C9) | IC50 (Cytochrome P450 2D6) | Ki (Cytochrome P450 2D6) | IC50 [2] | IC50 (Cytochrome P450 1A2) | Ki (Cytochrome P450 1A2)
